Test results as given in patent EP1206258B1, “COMPOSITIONS CONTAINING ESTERS FOR TREATING PARASITIC INFESTATIONS OF ORGANISMS” (priority 1999, dated 2001).

Assays:
[1] = test system: eggs of L.sericata; test: in vitro test on hatching of eggs of L.sericata (immersion); parameters: species or system Lucilia sericata; conditions: V/V in 2.0% W/V aqueous lecithin
Description: A series of in vitro tests were carried out to investigate the effects of the compound trans-cinnamic acid ethyl ester on the hatching of eggs of L.sericata.
A blowfly culture originating from the Central Veterinary Laboratory based in Weybridge, Surrey was used for the tests. None of the original adults had previously been exposed or resistant to insecticides. Eggs aged 10±2 hours of the blowfly were harvested on pig's liver in clusters using a prolene 4/0 paintbrush and examined under the binocular microscope for suitablility. Adult females used to produce these eggs were kept at 20°C, rh 70±5%, with a photoperiod of 8 hours. Groups of 30 eggs were then immediately transferred to a 9-cm Whatman filter paper in a 9-cm plastic petri dish. Two ml of cinnamic acid ethyl ester at concentrations in the range 1.0%; 2.5%; 5.0%; 7.5% and 10.0% V/V was poured gently into the petri dish immersing the eggs. Each concentration was previously prepared by dilution of active compound in a 2.0% W/V aqueous lecithin solution pre-warmed to 20°C. The mixture was sonicated for two minutes. After an exposure time of 1 minute, the test solution was carefully poured off and the eggs recovered individually to a 7ml polythene container in which a filter paper was saturated with pig's liver washings. […] Eggs following treatment were incubated at 25°C, rh 70±2% with a photoperiod of 8 hours duration. Hatching typically occurred within 12 hours of treatment.
Each concentration was replicated twice; controls were treated using only lecithin solution. The whole experiment was repeated using two further exposure times of 30 minutes and 90 minutes respectively.
The data were analysed using fitted curve graphical analysis. […] The data gathered from the experiment with an exposure time of 1 minute was also expressed using the probit transformation.
Fitted curves were used to calculate the concentration required to kill 50% of the eggs, (LC50) using the data obtained after immersing the eggs in solutions ranging from 1.0% to 10.0% V/V. The median lethal concentrations, (LC50) and LC95 concentrations are shown in Table 4 below:- Table 4

[2] = test system: Rabbit; conditions: Dermal, FRMM; cited from earlier work
[3] = test system: Rat; conditions: Oral, Russell 1973; cited from earlier work
[4] = test system: all stages of blow fly and larval life cycle; test: activity against blow fly and larval stages
[5] = test system: Aspergillus nidulans; test: growth inhibition test on SAB agar, A. nidulans; format: cell-based
Description: The antifungal activity of ethyl trans-cinnamate against a number of different fungi was investigated by means of in a simple growth inhibition test.
The following quantities of Ethyl trans-Cinnamate were added to Sabourand Dextrose agar (SAB); 50 ml L^-1, 4ml L^-1, 2ml L^-1, 1ml L^-1, 400 µl L^-1, 200 µl L^-1 and 40 µl L^-1. […] These were then autoclaved and poured into standard Petri dishes. […] Duplicate plates of each concentration, plus control plates containing only SAB Agar, where then separately inoculated with, four different species of fungi, these were Aspergillus nidulans, Penicillium digitatum, Rhizopus arrhizus and Fusarium culmorum. Inoculation was carried out using a single stab at the centre of each Petri dish. The plates were then incubated at 30°C for 6 days and daily measurements of mycobial growth where taken every 24 hours.

[6] = test system: Acarus siro; test: further residual filter paper bioassay on grain/flour mite Acarus siro (Table 2b); conditions: for % mortality: ethanol control 24.00
Description: A further study was carried out to investigate the effect of Ethyl cinnamate on the grain/flour mite Acarus siro using a residual filter paper bioassay. Mites from a colony grown at 25°C ± 85% RH were removed using a spatular and placed into a petri dish. 275 µ of the cinnamate was placed onto a filter paper in one well of a 6 well (17 ml) cell culture plate and likewise, 275 µ of DH2O was placed on another piece of 4 cm Whatman filter paper in a second well. Mixed instars (male + female) were added to each well. The actual number of instars was unknown in each case, since the test only sought to establish the presence of activity; measured in terms of cidal effect (knockdown). The duration of the test was 5 ± days. Both treatments were incubated at 25°C ± 85% RH and each well was checked 4 times daily. Small amounts of food mix of yeastea 20B and wheat germ in the ratio 3 : 1 were included on the filter paper in both treatments.
The treatment was later modified : 2, 10 cm Whatman filter papers were cut to ø of 3 cm and placed in the mite culture. After 10 minutes they were removed using forceps. The mites were then swept into each well respective of treatment. The cinnamate provided too glutenous (viscous) to be used undiluted. Therefore, it was dissolved using 10 fold dilutions in ethanol. Therefore 30 µ cinnamate : 270 µ ethanol to the extent of 10-4. The control was ethanol.
The above experiment was repeated.

[7] = Lethal Concentrations at 1 minute
[8] = Lethal Concentrations at 30 minutes

CCOC(=O)/C=C/c1ccccc1 [trans-cinnamic acid ethyl ester]
LC50 [1, 7]: LC50 2.76%
LC95 [1, 7]: LC95>7.50%
LC50 [1, 8]: LC50 1.78%
LC95 [1, 8]: LC95>5.00%
LC50 ([1]; Lethal Concentrations at 90 minutes): LC50 0.36%
LDSO [2]: >5000 mg·kg
LDSO [3]: 7800 mg/kg
effectiveness against all stages of blow fly and larval life cycle [4]: ineffective
Level of Radial Growth (mm) of A. nidulans ([5]; 1ml L^-1, Day 1): 0 mm
Level of Radial Growth (mm) of A. nidulans ([5]; 1ml L^-1, Day 2): 0 mm
Level of Radial Growth (mm) of A. nidulans ([5]; 1ml L^-1, Day 3): 6.0 mm
Level of Radial Growth (mm) of A. nidulans ([5]; 1ml L^-1, Day 4): 11.5 mm
Level of Radial Growth (mm) of A. nidulans ([5]; 1ml L^-1, Day 5): 16.5 mm
Level of Radial Growth (mm) of A. nidulans ([5]; 1ml L^-1, Day 6): 22.0 mm
Level of Radial Growth (mm) of A. nidulans ([5]; 2ml L^-1, Day 1): 0 mm
Level of Radial Growth (mm) of A. nidulans ([5]; 2ml L^-1, Day 2): 0 mm
Level of Radial Growth (mm) of A. nidulans ([5]; 2ml L^-1, Day 3): 0 mm
Level of Radial Growth (mm) of A. nidulans ([5]; 2ml L^-1, Day 4): 0 mm
Level of Radial Growth (mm) of A. nidulans ([5]; 2ml L^-1, Day 5): 6.5 mm
Level of Radial Growth (mm) of A. nidulans ([5]; 2ml L^-1, Day 6): 12.5 mm
Level of Radial Growth (mm) of A. nidulans ([5]; 4ml L^-1, Day 1): 0 mm
Level of Radial Growth (mm) of A. nidulans ([5]; 4ml L^-1, Day 2): 0 mm
Level of Radial Growth (mm) of A. nidulans ([5]; 4ml L^-1, Day 3): 0 mm
Level of Radial Growth (mm) of A. nidulans ([5]; 4ml L^-1, Day 4): 0 mm
Level of Radial Growth (mm) of A. nidulans ([5]; 4ml L^-1, Day 5): 0 mm
Level of Radial Growth (mm) of A. nidulans ([5]; 4ml L^-1, Day 6): 4.5 mm
Level of Radial Growth (mm) of A. nidulans ([5]; 40µl L^-1, Day 1): 0 mm
Level of Radial Growth (mm) of A. nidulans ([5]; 40µl L^-1, Day 2): 12.0 mm
Level of Radial Growth (mm) of A. nidulans ([5]; 40µl L^-1, Day 3): 23.0 mm
Level of Radial Growth (mm) of A. nidulans ([5]; 40µl L^-1, Day 4): 27.0 mm
Level of Radial Growth (mm) of A. nidulans ([5]; 40µl L^-1, Day 5): 32.5 mm
Level of Radial Growth (mm) of A. nidulans ([5]; 40µl L^-1, Day 6): 38 mm
inhibition of growth ([5]; 50ml L-^1 level): complete inhibition of growth
Level of Radial Growth (mm) of A. nidulans ([5]; 50 ml L^-1, Day 1): 0 mm
Level of Radial Growth (mm) of A. nidulans ([5]; 50 ml L^-1, Day 2): 0 mm
Level of Radial Growth (mm) of A. nidulans ([5]; 50 ml L^-1, Day 3): 0 mm
Level of Radial Growth (mm) of A. nidulans ([5]; 50 ml L^-1, Day 4): 0 mm
Level of Radial Growth (mm) of A. nidulans ([5]; 50 ml L^-1, Day 5): 0 mm
Level of Radial Growth (mm) of A. nidulans ([5]; 50 ml L^-1, Day 6): 0 mm
Level of Radial Growth (mm) of A. nidulans ([5]; 200µl L^-1, Day 1): 0 mm
Level of Radial Growth (mm) of A. nidulans ([5]; 200µl L^-1, Day 2): 9.5 mm
Level of Radial Growth (mm) of A. nidulans ([5]; 200µl L^-1, Day 3): 16.5 mm
Level of Radial Growth (mm) of A. nidulans ([5]; 200µl L^-1, Day 4): 23.0 mm
Level of Radial Growth (mm) of A. nidulans ([5]; 200µl L^-1, Day 5): 28.0 mm
Level of Radial Growth (mm) of A. nidulans ([5]; 200µl L^-1, Day 6): 34.5 mm
Level of Radial Growth (mm) of A. nidulans ([5]; 400µl L^-1, Day 1): 0 mm
Level of Radial Growth (mm) of A. nidulans ([5]; 400µl L^-1, Day 2): 5.5 mm
Level of Radial Growth (mm) of A. nidulans ([5]; 400µl L^-1, Day 3): 11.5 mm
Level of Radial Growth (mm) of A. nidulans ([5]; 400µl L^-1, Day 4): 18.0 mm
Level of Radial Growth (mm) of A. nidulans ([5]; 400µl L^-1, Day 5): 24.5 mm
Level of Radial Growth (mm) of A. nidulans ([5]; 400µl L^-1, Day 6): 30.0 mm
% mortality ([6]; Concentration 10-1 (dilution in ethanol)): 100.00%
% mortality ([6]; Concentration 10-2 (dilution in ethanol)): 100.00%
% mortality ([6]; Concentration 10-3 (dilution in ethanol)): 98.40%
% mortality ([6]; Concentration 10-4 (dilution in ethanol)): 86.00%
time to 100% mortality ([6]; undiluted dose, approximately): less than 15 minutes
